Measured values from ChEMBL document CHEMBL1201862, “PubChem BioAssay data set” (2004).
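Values below derive from 48-hour exposures of cells grown in 96-well plates, with endpoints linearly interpolated between the two concentrations bracketing the appropriate inhibition level. GI50 = concentration required for 50% inhibition of growth.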 Active and inactive are the calls of the source. No stated cut-off is given here; in the data, active = GI50 up to about 1.1 µM and inactive = higher.

Experiments:
Assay in all cases: NCI anticancer screen, dose series, 48 h
ACHN = test system: ACHN
A549 = test system: A549
HCT-15 = test system: HCT-15
UACC-62 = test system: UACC-62
HL-60 = test system: HL-60
MOLT-4 = test system: MOLT-4
TK-10 = test system: TK-10
SF-268 = test system: SF-268
IGROV-1 = test system: IGROV-1
SK-MEL-28 = test system: SK-MEL-28
BT-549 = test system: BT-549
OVCAR-8 = test system: OVCAR-8
NCI-H460 = test system: NCI-H460
HOP-92 = test system: HOP-92
EKVX = test system: EKVX
UO-31 = test system: UO-31
SK-OV-3 = test system: SK-OV-3
HT-29 = test system: HT-29
NCI-H23 = test system: NCI-H23
HCT-116 = test system: HCT-116

Compound | GI50 (ACHN) | GI50 (A549) | GI50 (HCT-15) [µM] | GI50 (UACC-62) | GI50 (HL-60) | GI50 (MOLT-4) | GI50 (TK-10) | GI50 (SF-268) | GI50 (IGROV-1) | GI50 (SK-MEL-28) | GI50 (BT-549) | GI50 (OVCAR-8) | GI50 (NCI-H460) | GI50 (HOP-92) | GI50 (EKVX) | GI50 (UO-31) | GI50 (SK-OV-3) | GI50 (HT-29) | GI50 (NCI-H23) | GI50 (HCT-116)
CC1=C(C(=O)N[C@@H](CC(C)C)C(=O)O)N2C(=O)[C@@H](NC(=O)[C@@H](N)Cc3ccccc3)[C@H]2SC1 | > 100 µM (inactive) | > 100 µM (inactive) | > 100 | > 100 µM (inactive) | > 100 µM (inactive) | > 100 µM (inactive) | > 100 µM (inactive) | > 100 µM (inactive) | > 100 µM (inactive) | > 100 µM (inactive) | > 100 µM (inactive) | > 100 µM (inactive) | > 100 µM (inactive) | > 100 µM (inactive) | > 100 µM (inactive) | – | – | – | – | –
CC(C#N)(c1ccccc1)N(CCc1ccccc1)C(=O)Oc1ccccc1 (stereo not drawn) | > 100 µM (inactive) | > 100 µM (inactive) | > 100 | > 100 µM (inactive) | > 100 µM (inactive) | > 100 µM (inactive) | > 100 µM (inactive) | > 100 µM (inactive) | > 100 µM (inactive) | > 100 µM (inactive) | > 100 µM (inactive) | > 100 µM (inactive) | – | 10.9 µM (inactive) | > 100 µM (inactive) | > 100 µM (inactive) | > 100 µM (inactive) | > 100 µM (inactive) | > 100 µM (inactive) | > 100 µM (inactive)
Cc1ccc(Nc2cc(=O)[nH]c(=O)[nH]2)cc1CS | 77.4 µM (inactive) | > 100 µM (inactive) | > 100 | > 100 µM (inactive) | – | > 100 µM (inactive) | > 100 µM (inactive) | 61.4 µM (inactive) | > 100 µM (inactive) | > 100 µM (inactive) | 58.1 µM (inactive) | > 100 µM (inactive) | > 100 µM (inactive) | > 100 µM (inactive) | > 100 µM (inactive) | > 100 µM (inactive) | > 100 µM (inactive) | > 100 µM (inactive) | > 100 µM (inactive) | > 100 µM (inactive)
O=C1c2c(Br)sc(Br)c2[C@H]2NC(=S)O[C@@H]12 | 17.7 µM (inactive) | 20.8 µM (inactive) | 4.18 | 15.7 µM (inactive) | – | 1.32 µM (inactive) | 29.6 µM (inactive) | 15 µM (inactive) | 16.7 µM (inactive) | 13.2 µM (inactive) | 16.5 µM (inactive) | 9.82 µM (inactive) | 18.6 µM (inactive) | 18 µM (inactive) | 20.4 µM (inactive) | 15.3 µM (inactive) | 18.7 µM (inactive) | 14.5 µM (inactive) | 14.8 µM (inactive) | 10.7 µM (inactive)
O=[N+]([O-])c1ccc(Cl)cc1N/N=C/c1cccs1 | > 100 µM (inactive) | > 100 µM (inactive) | > 100 | > 100 µM (inactive) | > 100 µM (inactive) | > 100 µM (inactive) | > 100 µM (inactive) | > 100 µM (inactive) | > 100 µM (inactive) | > 100 µM (inactive) | > 100 µM (inactive) | > 100 µM (inactive) | > 100 µM (inactive) | – | > 100 µM (inactive) | > 100 µM (inactive) | > 100 µM (inactive) | > 100 µM (inactive) | > 100 µM (inactive) | > 100 µM (inactive)
COc1ccc(/C=C/C2=NN(c3cccc(S(=O)(=O)O)c3)C3(C2)SCC(=O)N3c2nc3ccccc3s2)cc1 (stereo not drawn) | 69 µM (inactive) | 90.4 µM (inactive) | 85.9 | 54.3 µM (inactive) | > 100 µM (inactive) | 17.5 µM (inactive) | 86.3 µM (inactive) | 98.6 µM (inactive) | 30.8 µM (inactive) | > 100 µM (inactive) | 56.1 µM (inactive) | 60.7 µM (inactive) | 50.7 µM (inactive) | 68.1 µM (inactive) | 64.7 µM (inactive) | 51.1 µM (inactive) | – | > 100 µM (inactive) | 40.1 µM (inactive) | > 100 µM (inactive)
Cc1cc2c(c3oc(C4(C)OC4C4OC4C)cc(=O)c13)C(=O)c1c(O)c(C3CC(C)(N(C)C)C(O)C(C)O3)cc(C3CC(N(C)C)C(O)C(C)O3)c1C2=O (stereo not drawn) | 4.4e-05 µM (active) | 0.0025 µM (active) | – | 6.43e-05 µM (active) | 0.0025 µM (active) | 0.0025 µM (active) | 0.000197 µM (active) | 2.5e-05 µM (active) | 0.000951 µM (active) | – | 0.00011 µM (active) | 0.0025 µM (active) | 0.0025 µM (active) | 0.000733 µM (active) | – | 0.000557 µM (active) | 0.000215 µM (active) | 0.000175 µM (active) | 0.0025 µM (active) | 1.54e-05 µM (active)
NC(=S)N/N=C1\CCCCC1C(O)(C(F)(F)Cl)C(F)(F)Cl (stereo not drawn) | > 10 µM (inactive) | > 10 µM (inactive) | > 10 | > 10 µM (inactive) | > 10 µM (inactive) | > 10 µM (inactive) | > 10 µM (inactive) | > 10 µM (inactive) | > 10 µM (inactive) | > 10 µM (inactive) | > 10 µM (inactive) | > 10 µM (inactive) | > 10 µM (inactive) | > 10 µM (inactive) | > 10 µM (inactive) | – | > 10 µM (inactive) | > 10 µM (inactive) | > 10 µM (inactive) | > 10 µM (inactive)
Cc1ccc(NC(=O)c2ccccc2C(=O)O)cc1C | > 100 µM (inactive) | > 100 µM (inactive) | > 100 | > 100 µM (inactive) | – | > 100 µM (inactive) | > 100 µM (inactive) | > 100 µM (inactive) | > 100 µM (inactive) | > 100 µM (inactive) | > 100 µM (inactive) | > 100 µM (inactive) | > 100 µM (inactive) | > 100 µM (inactive) | > 100 µM (inactive) | – | > 100 µM (inactive) | > 100 µM (inactive) | > 100 µM (inactive) | > 100 µM (inactive)
COC(=O)c1ccc(/C=C/c2cc(O)ccc2O)cc1 | 3.19 µM (inactive) | 19.8 µM (inactive) | 3.01 | 2.87 µM (inactive) | 0.269 µM (active) | 0.255 µM (active) | 8.43 µM (inactive) | 2.15 µM (inactive) | 2.62 µM (inactive) | 13.9 µM (inactive) | 1.11 µM (active) | 2.67 µM (inactive) | 8.45 µM (inactive) | 2.44 µM (inactive) | 2.37 µM (inactive) | 1.47 µM (inactive) | – | 30.3 µM (inactive) | 4.39 µM (inactive) | 5.75 µM (inactive)
NCCCNCCCCN1CCOC1=O | > 100 µM (inactive) | > 100 µM (inactive) | > 100 | > 100 µM (inactive) | > 100 µM (inactive) | > 100 µM (inactive) | > 100 µM (inactive) | > 100 µM (inactive) | > 100 µM (inactive) | > 100 µM (inactive) | > 100 µM (inactive) | > 100 µM (inactive) | > 100 µM (inactive) | – | > 100 µM (inactive) | > 100 µM (inactive) | > 100 µM (inactive) | > 100 µM (inactive) | > 100 µM (inactive) | > 100 µM (inactive)
C[C@@H](c1ccccc1)n1c(N)c(-c2ccccn2)c2ccc([N+](=O)[O-])cc2c1=O | 56.9 µM (inactive) | 34.9 µM (inactive) | 86.1 | > 100 µM (inactive) | 52.4 µM (inactive) | – | 31.2 µM (inactive) | > 100 µM (inactive) | – | > 100 µM (inactive) | 44.1 µM (inactive) | 51.2 µM (inactive) | 43.1 µM (inactive) | 33.3 µM (inactive) | – | 14.5 µM (inactive) | – | > 100 µM (inactive) | 54.6 µM (inactive) | 79.4 µM (inactive)
CCOC1Oc2ccccc2-c2nc(SC)ncc21 (stereo not drawn) | > 100 µM (inactive) | > 100 µM (inactive) | 79.3 | 75.5 µM (inactive) | 45.9 µM (inactive) | 50.8 µM (inactive) | 68.4 µM (inactive) | > 100 µM (inactive) | 35.2 µM (inactive) | – | 78 µM (inactive) | > 100 µM (inactive) | 55.6 µM (inactive) | 29.2 µM (inactive) | 36 µM (inactive) | 51.3 µM (inactive) | > 100 µM (inactive) | 52.4 µM (inactive) | > 100 µM (inactive) | 83.2 µM (inactive)
SC1=NNC2(C(Cl)=N1)c1ccccc1-c1ccccc12 | – | > 10 µM (inactive) | > 10 | > 10 µM (inactive) | > 10 µM (inactive) | > 10 µM (inactive) | > 10 µM (inactive) | > 10 µM (inactive) | > 10 µM (inactive) | > 10 µM (inactive) | > 10 µM (inactive) | > 10 µM (inactive) | > 10 µM (inactive) | > 10 µM (inactive) | > 10 µM (inactive) | 6.44 µM (inactive) | > 10 µM (inactive) | – | > 10 µM (inactive) | –
Cc1ccccc1/N=C/N(C)C | 41.8 µM (inactive) | 39.6 µM (inactive) | > 100 | 41.9 µM (inactive) | 14.1 µM (inactive) | 29.9 µM (inactive) | 54.6 µM (inactive) | 57.4 µM (inactive) | 37.3 µM (inactive) | 75.3 µM (inactive) | 85.7 µM (inactive) | 33.9 µM (inactive) | – | 48.3 µM (inactive) | 35.3 µM (inactive) | 74.6 µM (inactive) | > 100 µM (inactive) | 34.3 µM (inactive) | 19.2 µM (inactive) | 33.8 µM (inactive)
